Measurements taken from patent US10981860B2, “Caspase inhibitor and pharmaceutical composition, use and therapeutic method thereof” (Chia Tai Tianqing Pharmaceutical Group Co., Ltd., priority 2016, dated 2021).
Read-outs that look alike come from different tables or passages of the source.

How the values were obtained:
[1] = Mouse pharmacokinetic study (intravenous and oral); format: in vivo; details: for half-life (in words) / in vivo exposure (in words): Examples compared to reference compound IDN-6556
Excerpt: Experimental Example 2: Mouse Pharmacokinetic Study
The mice were randomly divided into two groups (one intravenous group and one oral group) or only oral group, 3 males in each group. The compounds were formulated into the designated preparations. The intravenous preparations should be filtered to provide clear solutions, and the oral preparations can be clear or can be uniform suspensions. All animals in the intravenous group were intravenously injected with the given doses of the compound preparations through tail veins. The oral group was administrated with the given doses of the preparations by gavage.
Whole blood samples were collected from the other side of the tail vein at 8 time points (2 min, 5 min, 15 min, 30 min, 1 h, 2 h, 4 h and 8 h after administration) in the intravenous group, about 25 μL for each sample; whole blood samples were collected from the tail vein at 8 time points (2 min, 5 min, 15 min, 30 min, 1 h, 2 h, 4 h and 8 h after administration) in the oral group, about 25 μL for each sample.
[…] were added to a centrifuge tube containing anticoagulants, and centrifuged at 4° C., 3000 g for 15 min. The supernatant plasma was quickly frozen on dry ice and stored in a ⋅ refrigerator at −70° C.±10° C. until LC-MS/MS analysis was performed.
The concentration data of plasma drug for the compounds were processed with the non-compartmental model using WinNonlin™ Version 6.3.0 (Pharsight, Mountain View, Calif.) pharmacokinetic software. The peak concentration (Cmax), time to peak concentration (Tmax) and last time for quantitative were obtained directly from the blood concentration-time chart.
The following pharmacokinetic parameters were calculated by using Log-linear Trapezoidal method: elimination phase half-life (T1/2); apparent volume of distribution (Vdss) and clearance rate (CL); the average residence time of the drug in vivo from 0 to the last time point (MRT0-last); the average residence time of the drug in vivo from zero time to infinity (MRT0-inf); the area under time-plasma concentration curve from 0 to the last time point (AUC0-last); the area under time-plasma concentration curve from zero time to infinity (AUC0-inf); initial concentration (C0).
For individual plasma concentrations of less than BQL, the concentrations appeared before Tmax were calculated as 0, and the concentrations appeared after Tmax were directly excluded. All parameters and ratios were reported in the forms of three significant digits.
The pharmacokinetic parameters of this experiment were calculated according to the theoretical blood collection times and the theoretical dose concentrations as described in the protocol. The deviations between the actual dose concentrations and the theoretical concentrations were within the range of ±20%. The deviations between the actual blood collection times and the theoretical blood collection times were in conformity with the relevant SOP (the point within 1 hour after administration was within the range of ±1 min, and the others were within 5% of the theoretical time).

[2] = system: Anti-Fas-induced Jurkat cells; experiment: Anti-Fas-induced apoptosis of Jurkat cells in vitro (Caspase 3 substrate Ac-DEVD-AMC fluorescence); format: cell-based; details: Homo sapiens; Jurkat Clone E6-1, Anti-Fas 50 ng/mL, 24 hours, Ac-DEVD-AMC 10 μM

C[C@H](NC(=O)C(=O)Nc1ccccc1C(C)(C)C)C(=O)N[C@@H](CC(=O)O)C(=O)COc1c(F)c(F)cc(F)c1F [IDN-6556, reference compound]
half-life (in words) [1]: relatively short
in vivo exposure (in words) [1]: low
Apparent volume of distribution ([1]; intravenous injection 1 mpk): 0.82 L/kg
Area under the concentration-time curve ([1]; intravenous injection 1 mpk): 0.446 µM·h
Clearance rate ([1]; intravenous injection 1 mpk): 106 mL/min/kg
Half-life ([1]; intravenous injection 1 mpk): 15 min
Bioavailability ([1]; male, plasma, 10 mg/kg, oral administration 10 mpk, read-out: Bioavailability): ≤ 4%
Area under the concentration-time curve ([1]; oral administration 10 mpk): 0.197 µM·h
Bioavailability ([1]; oral administration 10 mpk): 4.4%
Peak concentration ([1]; oral administration 10 mpk): 227 nM
Time to peak concentration ([1]; oral administration 10 mpk): 0.25 h

O=C(O)C[C@H](NC(=O)C1CCN(C(=O)C2CCCC2)CC1)C(=O)COc1c(F)c(F)cc(F)c1F [Example 49]
in vivo exposure (in words) [1]: significantly improved
Apparent volume of distribution ([1]; intravenous injection 1 mpk): 0.653 L/kg
Area under the concentration-time curve ([1]; intravenous injection 1 mpk): 0.852 µM·h
Clearance rate ([1]; intravenous injection 1 mpk): 38.6 mL/min/kg
Half-life ([1]; intravenous injection 1 mpk): 52.2 min
Area under the concentration-time curve ([1]; oral administration 10 mpk): 1.708 µM·h
Bioavailability ([1]; oral administration 10 mpk): 20.1%
Peak concentration ([1]; oral administration 10 mpk): 405 nM
Time to peak concentration ([1]; oral administration 10 mpk): 1 h

O=C(O)C[C@H](NC(=O)C1CCN(C(=O)OC2CCCC2)CC1)C(=O)COc1c(F)c(F)cc(F)c1F [Example 69]
in vivo exposure (in words) [1]: significantly improved
Area under the concentration-time curve ([1]; oral administration 10 mpk): 4.18 µM·h
Peak concentration ([1]; oral administration 10 mpk): 1993 nM
Time to peak concentration ([1]; oral administration 10 mpk): 0.5 h

CC(C)(C)c1ccccc1NC(=O)C(=O)N1CCC(C(=O)N[C@@H](CC(=O)O)C(=O)COc2c(F)c(F)cc(F)c2F)CC1 [Example 7]
half-life (in words) [1]: significantly improved
in vivo exposure (in words) [1]: significantly improved
oral bioavailability (in words) ([1]; compared to reference compound IDN-6556): significantly improved
Area under the concentration-time curve ([1]; oral administration 10 mpk): 3.657 µM·h
Peak concentration ([1]; oral administration 10 mpk): 1636 nM
Time to peak concentration ([1]; oral administration 10 mpk): 0.833 h

O=C(O)C[C@H](NC(=O)C1CCN(C(=O)c2ccccn2)CC1)C(=O)COc1c(F)c(F)cc(F)c1F [Example 35]
EC50 [2]: 25.4 nM

O=C(O)C[C@H](NC(=O)C1CCN(C(=O)C(=O)Nc2ccc(Cl)cc2C(F)(F)F)CC1)C(=O)COc1c(F)c(F)cc(F)c1F [Example 60]
EC50 [2]: 49.6 nM

Cc1ccc(C)c(CNC(=O)C(=O)N2CCC(C(=O)N[C@@H](CC(=O)O)C(=O)COc3c(F)c(F)cc(F)c3F)CC2)c1 [Example 95]
EC50 [2]: 33.2 nM

CC(C)(C)c1ccccc1NC(=O)C(=O)N1CC=CC[C@@H](C(=O)N[C@@H](CC(=O)O)C(=O)COc2c(F)c(F)cc(F)c2F)C1 [Example 12]
EC50 [2]: 52.5 nM

O=C(O)C[C@H](NC(=O)[C@H]1COCCN(C(=O)c2cc(-c3ccccc3Cl)on2)C1)C(=O)COc1c(F)c(F)cc(F)c1F [Example 125]
EC50 [2]: 16.2 nM

O=C(O)C[C@H](NC(=O)C1CCN(C(=O)C(=O)Nc2cc(Cl)ccc2C(F)(F)F)CC1)C(=O)COc1c(F)c(F)cc(F)c1F [Example 88]
EC50 [2]: 33.8 nM

O=C(O)C[C@H](NC(=O)C1CC2(CCN(C(=O)C3CCCC3)CC2)C1)C(=O)COc1c(F)c(F)cc(F)c1F [Example 106]
EC50 [2]: 17.5 nM

O=C(O)C[C@H](NC(=O)C1CCN(C(=O)C(=O)NCCC2CCCC2)CC1)C(=O)COc1c(F)c(F)cc(F)c1F [Example 62]
EC50 [2]: 42.4 nM

O=C(O)C[C@H](NC(=O)C1CCN(C(=O)OCc2cc(Cl)ccc2Cl)CC1)C(=O)COc1c(F)c(F)cc(F)c1F [Example 96]
EC50 [2]: 52.8 nM

CC(C)(C)c1ccccc1NC(=O)C(=O)N1C[C@@H](C(=O)N[C@@H](CC(=O)O)C(=O)COc2c(F)c(F)cc(F)c2F)Cc2ccccc21 [Example 17]
EC50 [2]: 289 nM

CC(C)(C)c1ccccc1NC(=O)C(=O)N1CCCC[C@H](C(=O)N[C@@H](CC(=O)O)C(=O)COc2c(F)c(F)cc(F)c2F)C1 (single isomer, unassigned) [Example 9]
EC50 [2]: 65.5 nM

CC(C)(C)c1ccccc1NC(=O)C(=O)N1CCCC[C@@H](C(=O)N[C@@H](CC(=O)O)C(=O)COc2c(F)c(F)cc(F)c2F)C1 (single isomer, unassigned) [Example 10]
EC50 [2]: 41.6 nM

CC(C)(C)c1ccccc1NC(=O)C(=O)N[C@H]1CC[C@H](C(=O)N[C@@H](CC(=O)O)C(=O)COc2c(F)c(F)cc(F)c2F)CC1 [Example 6]
EC50 [2]: 552 nM

O=C(O)C[C@H](NC(=O)C1CCN(C(=O)N2CCCC2)CC1)C(=O)COc1c(F)c(F)cc(F)c1F [Example 89]
EC50 [2]: 8.98 nM

O=C(O)C[C@H](NC(=O)[C@H]1CC[C@H](NC(=O)OCc2ccccc2)CC1)C(=O)COc1c(F)c(F)cc(F)c1F [Example 25]
EC50 [2]: 70.7 nM

O=C(O)C[C@H](NC(=O)C1CCN(C(=O)Nc2ccccc2)CC1)C(=O)COc1c(F)c(F)cc(F)c1F [Example 80]
EC50 [2]: 17.5 nM

O=C(O)C[C@H](NC(=O)C1CCN(C(=O)OCC(F)(F)F)CC1)C(=O)COc1c(F)c(F)cc(F)c1F [Example 67]
EC50 [2]: 14.6 nM

Cc1ccc(C)c(CCNC(=O)C(=O)N2CCC(C(=O)N[C@@H](CC(=O)O)C(=O)COc3c(F)c(F)cc(F)c3F)CC2)c1 [Example 94]
EC50 [2]: 43.9 nM

O=C(O)C[C@H](NC(=O)C1CCN(C(=O)C(=O)NC2CCCC2)CC1)C(=O)COc1c(F)c(F)cc(F)c1F [Example 61]
EC50 [2]: 50.4 nM

CC(C)(C)c1ccccc1NC(=O)C(=O)N1CCOC[C@@H](C(=O)N[C@@H](CC(=O)O)C(=O)COc2c(F)c(F)cc(F)c2F)C1 [Example 123]
EC50 [2]: 38.9 nM

CC1(C(=O)N[C@@H](CC(=O)O)C(=O)COc2c(F)c(F)cc(F)c2F)CCN(C(=O)C(=O)Nc2ccccc2C(C)(C)C)CC1 [Example 20]
EC50 [2]: 698 nM
